The target in this experiment is BTK (Homo sapiens, UniProt Q06187). The experiment can be described thus: biochemical.
The mark [1] stands for this setting: read-out: BTK inhibition (%), 0.75 uM BTK, […] probe 3l, 15 min preincubation.

Read-outs that look alike come from different tables or passages of the source.

Sequence of BTK (Q06187 402-655 limits assumed): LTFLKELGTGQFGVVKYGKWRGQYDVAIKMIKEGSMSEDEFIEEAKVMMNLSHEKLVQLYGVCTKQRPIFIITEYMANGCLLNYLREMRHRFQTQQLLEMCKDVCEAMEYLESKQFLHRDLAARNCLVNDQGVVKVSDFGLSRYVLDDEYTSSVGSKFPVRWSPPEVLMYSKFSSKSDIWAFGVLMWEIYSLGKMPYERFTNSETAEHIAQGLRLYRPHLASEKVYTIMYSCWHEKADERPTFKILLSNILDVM

Usually inhibition stands for the drop in the measured response relative to a control, in per cent. On to `CC(=O)N[C@@H](CC(=O)O)C(=O)N[C@@H](CCC(=O)O)C(=O)N[C@H](C(=O)N[C@H](C=O)CC(=O)O)C(C)C` [PCM-0215827], for which, under setting [1], the inhibition at 10 µM was -7.7%.
Still for that read-out and setting: the value for `CC(C)n1nc(-c2ccc(NC(=O)Nc3cc(C(F)(F)F)ccc3F)cc2)c2c(N)ncnc21` [PCM-0215828] was 106%; that for `Cc1cc(C)cc(Oc2ccc(CNC(=O)[C@H](C)N)cc2C)c1` [PCM-0215829] was -17.8%.
Same read-out and setting: the value for `COc1cc2nccc(Oc3ccc(NC(=O)c4cn(C(C)C)c(=O)n(-c5ccc(F)cc5)c4=O)cc3F)c2cc1OC` [PCM-0215831] was 12.4%; that for `CC(C)n1ncnc1-c1cn2c(n1)-c1ccc(O[C@@H](C)C(N)=O)cc1OCC2` [PCM-0215832] was -8.3%.
On the same count and under the same terms, the figure for `CS(=O)(=O)n1cc2c(n1)CN([C@H]1CO[C@H](c3cc(F)ccc3F)[C@@H](N)C1)C2` [PCM-0215833] is 4.6%.
Turning to `N#Cc1ccc2ncnc(NCCc3ccccc3)c2c1` [PCM-0215834], the inhibition at 10 µM under setting [1] is -30.3%.
The same measure, in the same setting: the figure for `C=C(Cc1ccccc1Cl)C(=O)OCC` [PCM-0215835] is -4.1%; for `CC(C)(CNC(=O)c1cccc(-c2noc(C(F)(F)F)n2)c1)c1coc(-c2ccccc2)n1` [PCM-0215836] it is -30.9%.
Same read-out and setting: the value for `Cc1[nH]nc2ncc(C(=O)N3CCC[C@H]3c3ccc(Cl)cc3)cc12` [PCM-0215837] was 6.2%.
With `COCCNCc1ccc(-c2cc3nccc(Oc4ccc(NC(=O)C5(C(=O)Nc6ccc(F)cc6)CC5)cc4F)c3s2)nc1` [PCM-0215838], the inhibition at 10 µM under setting [1] came to 81.4%.
As for `CCCCS(=O)(=O)N[C@@H](Cc1ccc(OCCCCC2CCNCC2)cc1)C(=O)O` [PCM-0215839], the inhibition at 10 µM under setting [1] is -1.5%.
On the same count and under the same terms, the figure for `O=C1OC(COc2ccccc2[N+](=O)[O-])CC1Cc1ccccc1` (stereo not shown) [PCM-0215840] is -3.1%.
Take `O=C(O)c1cc(C(=O)O)c(C(=O)N(Cc2cccc(Oc3ccccc3)c2)[C@H]2CCCc3ccccc32)cc1C(=O)O` [PCM-0215841]: the inhibition at 10 µM under setting [1] was determined as 13.1%.
The same measure, in the same setting: the value for `CN1C(=O)[C@@H](NC(=O)c2n[nH]c(Cc3ccccc3)n2)COc2ccccc21` [PCM-0215843] was 6.2%.
On the same count and under the same terms, the value for `CCN(CC)CCNC(=O)c1c(C)[nH]c(/C=C2\C(=O)Nc3ccc(-c4csc(-c5ccccc5)n4)cc32)c1C` [PCM-0215844] was 29%; that for `O=c1cc(N2CCOCC2)oc2c(-c3ccc4c(c3)OCCO4)csc12` [PCM-0215845] was 23.4%.
Consider `C[C@H](NC(=O)c1c(N)nn2cccnc12)c1cc2cccc(C#Cc3cnn(C)c3)c2c(=O)n1-c1ccccc1` [PCM-0215846], for which, under setting [1], the inhibition at 10 µM stood at 20%.
For the compound `CC(C)n1nccc1-c1ncccc1COc1cccc(O)c1C=O` [PCM-0215847], the inhibition at 10 µM under setting [1] is -13.1%.
On the same count and under the same terms, the value for `O=C(NCCN1CCOCC1)Nc1ccc(C(=O)/C=C/c2cccc(N3CCOCC3)n2)cc1` [PCM-0215849] was -0.8%; that for `O=C(c1ccccc1O)c1[nH]c(Cl)c(Cl)c1-n1c(C(=O)c2ccccc2O)cc(Cl)c1Cl` [PCM-0215850] was 117%; that for `CC(C)(CO)n1cc(C(=O)c2cncc(NC(=O)Cc3ccc(Cl)cn3)c2)c2cnc(N)nc21` [PCM-0215853] was 5.5%.
Consider `O=C(O)CCn1c(O)c(C2=c3cc(Cl)ccc3=NC2=O)sc1=S` [PCM-0215854], for which the inhibition at 10 µM under setting [1] is 0.8%.
Still for that read-out and setting: the value for `CCc1ccc(Cc2ccc3c(c2)[C@]2(OC3)O[C@H](CO)[C@@H](O)[C@H](O)[C@H]2O)cc1` [PCM-0215855] was 5.4%; that for `Nc1nc2cc(-c3ccc4ncc(C(=O)N5CCOCC5)n4c3)ccc2o1` [PCM-0215857] was 21.4%; that for `O=C(O)C(Cl)Cl` [PCM-0215858] was -8.5%.
The same measure, in the same setting: the figure for `CC(C)NC(=O)C1CCC(n2c(NC(=O)c3ccc(F)cc3)nc3ccc(CN4CCC(C(C)(C)O)CC4)cc32)CC1` (stereo not shown) [PCM-0215859] is 53.1%; for `NCCOc1ccc(Cl)cc1C(=O)Nc1ccc([N+](=O)[O-])cc1Cl` [PCM-0215860] it is 7.7%; for `Cc1cc(Nc2cc(Cl)nc(Oc3ccc([N+](=O)[O-])cc3)n2)n[nH]1` [PCM-0215861] it is 12.4%.
Still for that read-out and setting: the value for `O=S(=O)(NC1CCCCC1)c1ccc2c(c1)C(=NO)c1cc(S(=O)(=O)NC3CCCCC3)ccc1-2` [PCM-0215862] was 1.5%; that for `C=CC(=O)N1CCN(CCCn2c(=O)c(-c3c(Cl)c(OC)cc(OC)c3Cl)cc3cnc(NC)nc32)CC1` [PCM-0215863] was 6.2%.
For `C[C@@H](Nc1nc(N[C@H](C)C(F)(F)F)nc(-c2cccc(Cl)n2)n1)C(F)(F)F` [PCM-0215864], under setting [1], the inhibition at 10 µM was -3.9%.
Still for that read-out and setting: the figure for `NC(=O)c1ccc(OCCCN2CC3CCCC3C2)cc1` (stereo not shown) [PCM-0215865] is 6.2%.
On the same count and under the same terms, the figure for `CCc1nc(C(N)=O)c(Nc2ccc(N3CCC(N4CCN(C)CC4)CC3)c(OC)c2)nc1NC1CCOCC1` [PCM-0215866] is 73.8%; for `Cc1cc(C)nc(NC(=S)N2CCN(Cc3ccc(C(F)(F)F)cc3)CC2)c1` [PCM-0215867] it is -17%; for `Nc1ccc(F)cc1NC(=O)c1ccc(CNC(=O)/C=C/c2cccnc2)cc1` [PCM-0215868] it is -5.4%.
Consider `CCCC(=O)NCCc1csc(-c2ccc(Cl)cc2)n1` [PCM-0215869], for which the inhibition at 10 µM under setting [1] worked out at 2.3%.
As for `OC[C@H]1O[C@@H](c2ccc(F)c(Cc3cc4ccccc4s3)c2)[C@H](O)[C@@H](O)[C@@H]1O` [PCM-0215870], under setting [1], the inhibition at 10 µM came to 1.5%.
Same read-out and setting: the value for `c1cncc(-c2cn[nH]n2)c1` [PCM-0215871] was 15.4%; that for `Cc1cc(C)c(CN2CCc3c(Cl)cc(-c4c(C)noc4C)c(Cl)c3C2=O)c(=O)[nH]1` [PCM-0215872] was -8.5%; that for `Cc1ccc(NCCN(C)CCNc2ccnc3cc(Cl)ccc23)c2c(=O)c3ccccc3sc12` [PCM-0215874] was 6.8%.
The same measure, in the same setting: the figure for `Cn1nccc1Nc1nccc(-c2cc3c(s2)C(C)(C)N(CCN2CCOCC2)C3=O)n1` [PCM-0215875] is 6.9%.
Turning to `C[N+](C)(C)CCOP(=O)(O)OP(=O)([O-])OC[C@H]1O[C@@H](n2ccc(N)nc2=O)[C@H](O)[C@@H]1O` [PCM-0215877], the inhibition at 10 µM under setting [1] was -17.9%.
With `C[N+](C)(C)CCOP(=O)([O-])OP(=O)(O)OC[C@H]1O[C@@H](n2ccc(N)nc2=O)[C@H](O)[C@@H]1O` [PCM-0215877], the inhibition at 10 µM under setting [1] is 0.9%.
On the same count and under the same terms, the value for `Nc1nc(-c2ccco2)c2cnn(Cc3ccccc3F)c2n1` [PCM-0215878] was 5.4%.
Still for that read-out and setting: the figure for `COCCNC(=O)Nc1ccc2nc(-c3cccs3)c(-c3cccs3)nc2c1` [PCM-0215879] is 6.9%; for `O=P(O)(O)OC(CO)CO` [PCM-0215880] it is 11.9%.
Take `O=C(O)c1c[nH]c2cc(Cl)c(-c3ccc(C4(O)CCC4)cc3)cc12` [PCM-0215881]: the inhibition at 10 µM under setting [1] was 24.7%.
On the same count and under the same terms, the value for `CC(C)Cc1ccc([C@@H](C)C(=O)NS(C)(=O)=O)cc1` [PCM-0215882] was -24.8%; that for `CC1=C(CSC(=S)N2CCCCC2)C(=O)c2ccccc2C1=O` [PCM-0215883] was 21.6%.
On the same count and under the same terms, the value for `CC(=O)N[C@@H]1[C@@H](O[C@@H]2O[C@H](C(=O)O)[C@@H](O)[C@H](O)[C@H]2O)[C@@H](O)[C@@H](OS(=O)(=O)O)O[C@H]1O` [PCM-0215884] was -22.1%; that for `CN1CCN(C(=O)c2ccc(-c3ccc4c(C=O)c(O)ccc4c3)s2)CC1` [PCM-0215885] was 77.2%; that for `CSCCNc1nc(SCCC(F)(F)F)nc2c1ncn2[C@@H]1O[C@H](COP(=O)(O)OP(=O)(O)C(Cl)(Cl)P(=O)(O)O)[C@@H](O)[C@H]1O` [PCM-0215886] was -50.2%.
The same measure, in the same setting: the value for `CCOCCn1c(C2CCN(CCc3ccc(C(C)(C)C(=O)O)cc3)CC2)nc2ccccc21` [PCM-0215887] was 10.2%; that for `c1ccc2c(c1)[I+]c1ccccc1-2` [PCM-0215888] was -0.7%; that for `CC(C)CN(CC(=O)N1CCN(CC(OCc2ccc3ccccc3c2)c2ccc(Cl)cc2Cl)CC1)CC(C)C` (stereo not shown) [PCM-0215889] was 93.4%.
With `CC(=O)N1CCN(c2ccc(NC(=O)Cc3cnc(-c4ccnc(F)c4)c(C)c3)nc2)CC1` [PCM-0215890], under setting [1], the inhibition at 10 µM was -10.8%.
Still for that read-out and setting: the value for `O=C(NO)c1cnc(NC2(c3ccccc3)CC2)nc1` [PCM-0215891] was -10.8%; that for `CC(C)OC(=O)CCC/C=C\C[C@@H]1[C@@H](/C=C/[C@@H](O)COc2cccc(C(F)(F)F)c2)[C@H](O)C[C@@H]1O` [PCM-0215893] was -28%.
With `C=CCCCCCCCCC(=O)O[C@H]1CC[C@H]2[C@@H]3CCC4=CC(=O)C=C[C@]4(C)[C@H]3CC[C@]12C` [PCM-0215894], the inhibition at 10 µM (read-out: BTK inhibition (%)) was determined as 10.9%.
For the compound `CN(CCNCc1cn(Cc2ccc(Cl)cc2)nn1)CCNc1ccnc2cc(Cl)ccc12` [PCM-0215895], the inhibition at 10 µM under setting [1] is -10.8%.
Same read-out and setting: the value for `S=C(N/N=C1\CCCc2cccnc21)N1CCN(c2ccccn2)CC1` [PCM-0215896] was 20.1%; that for `CO[C@H]1O[C@H](COS(=O)(=O)O)[C@@H](O[C@@H]2O[C@@H](C(=O)O)[C@@H](O[C@H]3O[C@H](COS(=O)(=O)O)[C@@H](O[C@@H]4O[C@H](C(=O)O)[C@@H](O[C@H]5O[C@H](COS(=O)(=O)O)[C@@H](O)[C@H](O)[C@H]5NS(=O)(=O)O)[C@H](O)[C@H]4O)[C@H](OS(=O)(=O)O)[C@H]3NS(=O)(=O)O)[C@H](O)[C@H]2OS(=O)(=O)O)[C@H](O)[C@H]1NS(=O)(=O)O` [PCM-0215897] was -13.6%.
Still for that read-out and setting: the value for `CCCCC(CC)COC(=O)C(C#N)=C(c1ccccc1)c1ccccc1` (stereo not shown) [PCM-0215898] was 0%; that for `Nc1ccc(-c2cccc(C(=O)Nc3cnc4nc(N5CCOCC5)oc4c3)n2)cn1` [PCM-0215899] was 2.1%; that for `O=C1CC(c2c[nH]c3ccc(F)cc23)C(=O)N1` (stereo not shown) [PCM-0215900] was -5.4%.
For the compound `CC(=O)N1CCC(Nc2cc(C(=O)NC[C@H](O)CN3CCc4ccccc4C3)ncn2)CC1` [PCM-0215901], the inhibition at 10 µM under setting [1] is -0.8%.
